Read-outs that look alike come from different tables or passages of the source.
Assays:
hPEPT1 [1] = biological target: T1, hPEPT1 (Homo sapiens, UniProt P46059); test: [3H]Gly-Sar uptake inhibition in Caco-2 cells; format: cell-based
T1 sequence (P46059 1-708): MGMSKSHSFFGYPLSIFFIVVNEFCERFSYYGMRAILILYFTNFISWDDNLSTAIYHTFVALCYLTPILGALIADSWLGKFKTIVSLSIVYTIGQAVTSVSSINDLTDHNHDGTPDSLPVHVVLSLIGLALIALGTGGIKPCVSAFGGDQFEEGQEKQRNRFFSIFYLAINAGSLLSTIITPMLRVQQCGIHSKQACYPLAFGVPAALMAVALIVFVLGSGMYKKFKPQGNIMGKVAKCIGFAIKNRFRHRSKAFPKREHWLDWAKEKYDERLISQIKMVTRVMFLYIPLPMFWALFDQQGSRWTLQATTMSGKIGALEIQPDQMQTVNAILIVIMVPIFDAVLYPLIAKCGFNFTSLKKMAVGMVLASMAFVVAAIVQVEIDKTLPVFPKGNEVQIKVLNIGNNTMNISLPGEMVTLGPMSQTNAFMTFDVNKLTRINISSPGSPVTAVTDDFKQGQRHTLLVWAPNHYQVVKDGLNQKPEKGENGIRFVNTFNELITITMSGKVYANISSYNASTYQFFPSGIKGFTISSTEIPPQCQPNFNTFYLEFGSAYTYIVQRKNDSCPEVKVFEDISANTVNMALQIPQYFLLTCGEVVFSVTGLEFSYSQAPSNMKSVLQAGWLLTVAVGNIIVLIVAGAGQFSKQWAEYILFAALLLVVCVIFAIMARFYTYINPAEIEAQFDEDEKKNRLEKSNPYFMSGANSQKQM
Description: The affinity of zanamivir, GOC, 3-hydroxyphenylglycine (3-HPG) and prodrugs thereof for particular transporters is evaluated using [^3H]Gly-Sar uptake inhibition in Caco-2 cells and in HeLa/hPEPT1 cells. Valacyclovir, a known substrate of hPEPT1, was used as positive control (Table 1). […] The valyl and isoleucyl prodrugs of zanamivir, GOC, and 3-HPG have higher affinity for hPEPT1 than the parent compounds.

[2] = Permeability in rat perfused jejunum; format: in vivo
Excerpt: Improved permeability of prodrugs Zan-Val, GOC-Val, and 3-HPG-Ile compared to the parent compounds is observed in the rat perfused jejunum, as shown in FIG. 3.

hPEPT1 [3] = biological target: T1, hPEPT1; test: [3H]Gly-Sar uptake inhibition in HeLa/hPEPT1 cells; format: cell-based; parameters: expressed in transfected cells; host or cells: HeLa
[4] = AUC and bioavailability of GOC and GOC prodrugs in fasted rats (IV or duodenal injection); settings: for AUC0-4 hr, Prodrug / AUC0-4 hr, Total AUC / AUC0-4 hr, GOC / % F: rat
Description: 10 mg-eq/kg of GOC or GOC prodrugs were directly injected to duodenum segment of fasted rats. […] Appropriate volume of blood samples was taken from the jugular vein at the predetermined time points.
Rat plasma samples were analyzed for GOC prodrug and GOC using LCMSMS following solid phase extraction sampling preparation. A reverse phase solid-phase cartridge (HLB, 30 mg/1 cc, Waters) was activated with 1.0 mL of methanol and equilibrated with 1.0 mL of water. A 250 ul aliquot of rat plasma was acidified with 250 uL of 1% TFA solution and loaded on to the cartridges. After washing with 1.0 ml water, the compounds are eluted with 1 ml of 2% acetic acid solution. The eluted solvent was evaporated under nitrogen stream in TurboVap and the residue was reconstituted in 250 ul of mobile phase.
Samples were analyzed using a LC/MS/MS system (Micromass Quattro II, HP 1100). The HPLC system consisted of a HP1100 system (Hewlett Packard, CA). 10 ul of sample was separated with a C18 column (2.1×150 mm) using a mobile phase of 10-30% acetonitrile:water containing 0.1% formic acid. Quattro II triple quadrupole mass spectrometer (Micromass, Beverly, Mass.) interfaced with the HPLC via electropray source was used for the mass analysis and detection. The data acquisition software was MassLynx (version 4.0). Calibration curves were constructed by weighted (1/x) least square regression of peak area versus concentrations of the calibration standards.
Bioavailability calculation is based on the AUC0-4 hrs.

[5] = 10 mg-eq/kg oral gavage to rats; cited from earlier work
[6] = test system: influenza virus neuraminidase; settings: read-out: IC50, influenza virus neuraminidase; cited from earlier work
[7] = cited from earlier work; for bioavailability: species not stated
[8] = Hydrolysis of prodrugs in buffer over pH 1.2-7.4 at 37° C.; format: physicochemical; settings: pH range 1.2-7.4, 37° C.
Description: The hydrolysis of prodrugs of the present invention in buffer was studied over the pH range 1.2-7.4 at 37° C.

VACVase = biological target: T2, VACVase (Homo sapiens, UniProt Q86WA6); test: Hydrolysis of prodrugs by VACVase (Michaelis-Menten kinetics)
T2 sequence (Q86WA6 38-291): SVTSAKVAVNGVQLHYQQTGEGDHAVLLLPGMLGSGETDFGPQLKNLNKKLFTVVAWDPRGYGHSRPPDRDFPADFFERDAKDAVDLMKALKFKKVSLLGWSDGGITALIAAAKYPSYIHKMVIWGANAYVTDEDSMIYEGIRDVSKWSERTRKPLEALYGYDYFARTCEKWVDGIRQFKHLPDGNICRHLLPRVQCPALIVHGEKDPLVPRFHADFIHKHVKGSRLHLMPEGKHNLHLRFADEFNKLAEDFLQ

[9] = substrate: CC(C)[C@H](N)C(=O)OCCOCn1cnc2c(=O)[nH]c(N)nc21; test: purified protein, by the assay type; settings: 25.0 °C
[10] = HeLa/hPEPT1 cells, mean ± sd, n = 2, read-out: IC50 of [3H]Gly-Sar uptake inhibition
[11] = duodenal administration (OGI) 10 mg-eq/kg

Molecule: NC(C(=O)O)c1cccc(O)c1 (stereo not shown) [3-HPG, 3-hydroxyphenylglycine]
- affinity for the transporter (hPEPT1 [1]): poor affinity
- jejunal permeability [2]: very low, essentially zero permeability
- affinity for the transporter (hPEPT1 [3]; HeLa/hPEPT1 cells): poor affinity
- IC50 (hPEPT1 [3]; [10]): > 5000 µM

Molecule: CCC(CC)O[C@@H]1C=C(C(=O)OCCNC(=O)[C@@H](N)C(C)C)C[C@H](NC(=N)N)[C@H]1NC(C)=O [GOC GlyOH L-Val]
- species found in plasma after dosing ([4]; rat plasma, OGI 10 mg-eq/kg): Only a trace amount of GOC is detected in the plasma
- AUC0-4 hr, Prodrug [4, 11]: 386 ± 406 (ng/mL) · hrs
- AUC0-4 hr, Total AUC [4, 11]: 401 ± 419 (ng/mL) · hrs

Molecule: CCC(CC)O[C@@H]1C=C(C(=O)OCC(C)OC(=O)[C@@H](N)C(C)C)C[C@H](NC(=N)N)[C@H]1NC(C)=O (stereo partly drawn) [GOC PG L-Val]
- AUC0-4 hr, Prodrug [4, 11]: 17 ± 12 (ng/mL) · hrs
- AUC0-4 hr, Total AUC [4, 11]: 116 ± 61 (ng/mL) · hrs

Molecule: CCC(CC)O[C@@H]1C=C(C(=O)O)C[C@H](NC(=N)N)[C@H]1NC(C)=O [GOC, guanidino oseltamivir carboxylate]
- affinity for the transporter (hPEPT1 [1]): poor affinity
- jejunal permeability [2]: very low, essentially zero permeability
- AUC0-4 hr, GOC ([4]; IV injection 1 mg/kg): 385 ± 167 (ng/mL) · hrs
- AUC0-4 hr, Total AUC ([4]; IV injection 1 mg/kg): 385 ± 167 (ng/mL) · hrs
- % F ([4]; IV injection 1 mg/kg (reference)): 100.0%
- AUC0-4 hr, GOC [4, 11]: 265 ± 91 (ng/mL) · hrs
- AUC0-4 hr, Total AUC [4, 11]: 265 ± 91 (ng/mL) · hrs
- % F ([4]; duodenal administration (OGI) 10 mg-eq/kg, based on AUC0-4 hrs): 4.6%
- % F [5]: 4.0%
- Cmax [5]: 60 ng/mL
- IC50 [6]: 0.0009 µM
- bioavailability [7]: ~4.0%
- affinity for the transporter (hPEPT1 [3]; HeLa/hPEPT1 cells): poor affinity
- IC50 (hPEPT1 [3]; [10]): 6600 ± 3900 µM

Molecule: CCC(CC)O[C@@H]1C=C(C(=O)OC(C)OC(=O)[C@@H](N)[C@@H](C)CC)C[C@H](NC(=N)N)[C@H]1NC(C)=O (stereo partly shown) [GOC-Ile, isoleucine ethoxyester of guanidine oseltamivir]
- hydrolysis behaviour in buffer [8]: pH dependent hydrolysis
- IC50 (hPEPT1 [3]; [10]): 450 ± 180 µM

Molecule: CCC(CC)O[C@@H]1C=C(C(=O)OC(C)OC(=O)[C@@H](N)C(C)C)C[C@H](NC(=N)N)[C@H]1NC(C)=O (stereo partly shown) [GOC-Val, valine ethoxyester of guanidine oseltamivir]
- hydrolysis behaviour in buffer [8]: pH dependent hydrolysis
- jejunal permeability [2]: high permeability, higher than that of metoprolol
- IC50 (hPEPT1 [3]; [10]): 190 ± 10 µM
- Kcat (VACVase; hydrolysis by VACVase, 25° C.): 8.7 s⁻¹
- Km (VACVase; hydrolysis by VACVase, 25° C.): 2370 µM
- Vmax (VACVase; hydrolysis by VACVase, 25° C.): 19.4 nmol/min/μg of VACVase

Molecule: CCC(CC)O[C@@H]1C=C(C(=O)O)C[C@H](N)[C@H]1NC(C)=O [GS4071, oseltamivir carboxylate]
- Cmax [5]: 30 ng/mL
- bioavailability [7]: ~4.0%

Molecule: CCOC(=O)C1=C[C@@H](OC(CC)CC)[C@H](NC(C)=O)[C@@H](N)C1 [GS4104, oseltamivir]
- % F [5]: 35%
- Cmax [5]: 47 ng/mL
- oral bioavailability ([7]; in rats, mice, dogs and ferrets): 11-73%

Molecule: CCOC(=O)C1=C[C@@H](OC(CC)CC)[C@H](NC(C)=O)[C@@H](NC(=N)N)C1 [GS4109]
- Cmax [5]: 30 ng/mL
- bioavailability [7]: approximately 2%

Molecule: CC(C)[C@H](N)C(=O)OCCOCn1cnc2c(=O)[nH]c(N)nc21 [Valcyclovir, Valacyclovir]
- IC50 (hPEPT1 [3]): 1880 ± 510 µM
- Vmax (VACVase): 280 nmol/min/μg of VACVase

Molecule: CC[C@H](C)[C@H](N)C(=O)OC(C)OC(=O)C1=C[C@H](NC(=N)N)[C@@H](NC(C)=O)[C@H]([C@H](O)[C@H](O)CO)O1 (stereo partly shown) [Zan-Ile, zanamivir ethoxyisoleucine ester]
- IC50 (hPEPT1 [3]; [10]): 3040 ± 800 µM

Molecule: CC(=O)N[C@H]1[C@H]([C@H](O)[C@H](O)CO)OC(C(=O)OC(C)OC(=O)[C@@H](N)C(C)C)=C[C@@H]1NC(=N)N (stereo partly shown) [Zan-Val, valine ethoxyester of zanamivir]
- hydrolysis behaviour in buffer [8]: pH dependent hydrolysis
- jejunal permeability [2]: high permeability, higher than that of metoprolol
- IC50 (hPEPT1 [3]; [10]): 1950 ± 190 µM
- Kcat (VACVase; hydrolysis by VACVase, 25° C.): 21.2 s⁻¹
- Km (VACVase; hydrolysis by VACVase, 25° C.): 1550 µM
- Vmax (VACVase; hydrolysis by VACVase, 25° C.): 47.2 nmol/min/μg of VACVase

Molecule: CC(=O)N[C@H]1[C@H]([C@H](O)[C@H](O)CO)OC(C(=O)O)=C[C@@H]1N=C(N)N [Zanamivir, zanamivir]
- affinity for the transporter (hPEPT1 [1]): poor affinity
- jejunal permeability [2]: very low, essentially zero permeability
- % F [5]: 3.7%
- Cmax [5]: 60 ng/mL
- absolute oral availability ([7]; in vivo, po): ~2%
- affinity for the transporter (hPEPT1 [3]; HeLa/hPEPT1 cells): poor affinity
- IC50 (hPEPT1 [3]; [10]): > 30000 µM

Molecule: CCC(CC)[C@H](NC(C)=O)[C@@H]1[C@H](O)[C@@H](C(=O)O)C[C@H]1N=C(N)N [peramivir]
- oral bioavailability ([7]; peramivir, clinical trials context): ≤ 3%

B1: VACVase (Homo sapiens) (protein)
chain: T2 sequence (Q86WA6 38-291)
- Km [9]: 590 µM
- kcat [9]: 126 s⁻¹
- kcat/Km [9]: 213000 M⁻¹ s⁻¹
